Measurements taken from patent US8802597B2, “Herbicidal pyrimidines” (E I du Pont de Nemours and Company, priority 2003, dated 2014).

Tests used:
Format in all cases: in vivo
[1] = test system: Surinam grass (Brachiaria decumbens); assay: Test C pre/postemergence; conditions: Preemergence
Text: (§1) Seeds or nutlets of plant species selected from bermudagrass (Cynodon dactylon), Surinam grass (Brachiaria decumbens), cocklebur (Xanthium strumarium), corn (Zea mays), crabgrass (Digitaria sanguinalis), woolly cupgrass (Eriochloa villosa), giant foxtail (Setaria faberii), goosegrass (Eleusine indica), johnsongrass (Sorghum halepense), kochia (Kochia scoparia), lambsquarters (Chenopodium album), morningglory (Ipomoea coccinea), eastern black nightshade (Solanum ptycanthum), yellow nutsedge (Cyperus esculentus), pigweed (Amaranthus retroflexus), common ragweed (Ambrosia elatior), soybean (Glycine max), common (oilseed) sunflower (Helianthus annuus), and velvetleaf (Abutilon theophrasti) were planted and treated preemergence with test chemicals formulated in a non-phytotoxic solvent mixture which included a surfactant.
(§2) At the same time, plants selected from these crop and weed species and also winter barley (Hordeum vulgare), blackgrass (Alopecurus myosuroides), canarygrass (Phalaris minor), chickweed (Stellaria media), downy brome (Bromus tectorum), green foxtail (Setaria viridis), Italian ryegrass (Lolium multiflorum), wheat (Triticum aestivum), wild oat (Avena fatua) and windgrass (Apera spica-venti) were treated with postemergence applications of some of the test chemicals formulated in the same manner. Plants ranged in height from 2 to 18 cm (1- to 4-leaf stage) for postemergence treatments. Plant species in the flooded paddy test consisted of rice (Oryza sativa), umbrella sedge (Cyperus difformis), duck salad (Heteranthera limosa) and barnyardgrass (Echinochloa crus-galli) grown to the 2-leaf stage for testing. Treated plants and controls were maintained in a greenhouse for 12 to 14 days, after which time all species were compared to controls and visually evaluated. Plant response ratings, summarized in Table C, are based on a scale of 0 to 100 where 0 is no effect and 100 is complete control. A dash (-) response means no test result.

[2] = test system: yellow nutsedge (Cyperus esculentus); assay: Test C pre/postemergence; conditions: Preemergence
Text: as §1, §2

[3] = test system: crabgrass (Digitaria sanguinalis); assay: Test C pre/postemergence; conditions: Preemergence
Text: as §1, §2

[4] = test system: giant foxtail (Setaria faberii); assay: Test C pre/postemergence; conditions: Preemergence
Text: as §1, §2

[5] = test system: morningglory (Ipomoea spp.); assay: Test A pre/postemergence
How it was run: (§3)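 Seeds sown in loam–sand blend received a preemergence directed soil spray of test chemical in non-phytotoxic solvent with surfactant; same-formulation postemergence spray given concurrently to plants 2–10 cm tall at 1- to 2-leaf stage. Greenhouse ~ten days, then visual injury rating versus untreated controls, 0 (no effect) to 100 (complete control).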

[6] = test system: crabgrass (Digitaria sanguinalis); assay: Test A pre/postemergence
How it was run: as §3

[7] = test system: giant foxtail (Setaria faberi); assay: Test A pre/postemergence
How it was run: as §3

[8] = test system: redroot pigweed (Amaranthus retroflexus); assay: Test A pre/postemergence
How it was run: as §3

[9] = test system: velvetleaf (Abutilon theophrasti); assay: Test A pre/postemergence
How it was run: as §3

[10] = test system: barnyardgrass (Echinochloa crus-galli); assay: Test A pre/postemergence
How it was run: as §3

[11] = 31 g ai/ha, scale 0 to 100, 0 no effect, 100 complete control
[12] = 62 g ai/ha, scale 0 to 100, 0 no effect, 100 complete control
[13] = Postemergence, 125 g ai/ha, 0 to 100 scale (0 no effect, 100 complete control)
[14] = Postemergence, 500 g ai/ha, 0 to 100 scale (0 no effect, 100 complete control)
[15] = Preemergence, 125 g ai/ha, 0 to 100 scale where 0 is no effect and 100 is complete control, approximately ten days
[16] = Preemergence, 500 g ai/ha, 0 to 100 scale where 0 is no effect and 100 is complete control, approximately ten days
[17] = 16 g ai/ha, scale 0 to 100, 0 no effect, 100 complete control

CCOC(=O)C(Cl)c1nc(C2CC2)nc(N)c1Br (centres unmarked) [Compound 31]
Plant response rating, Surinam Grass [1, 11]: 0
Plant response rating, Surinam Grass [1, 12]: 0
Plant response rating, Surinam Grass ([1]; 125 g ai/ha, scale 0 to 100): 0
Plant response rating, Surinam Grass ([1]; 250 g ai/ha, scale 0 to 100): 0
Plant response rating, Nutsedge, Yellow [2, 11]: 0
Plant response rating, Nutsedge, Yellow [2, 12]: 0
Plant response rating, Nutsedge, Yellow ([2]; 125 g ai/ha, scale 0 to 100): 0
Plant response rating, Nutsedge, Yellow ([2]; 250 g ai/ha, scale 0 to 100): 0
Plant response rating, Crabgrass [3, 11]: 0
Plant response rating, Crabgrass [3, 12]: 0
Plant response rating, Crabgrass ([3]; 125 g ai/ha, scale 0 to 100): 0
Plant response rating, Crabgrass ([3]; 250 g ai/ha, scale 0 to 100): 0
Plant response rating, Foxtail, Giant [4, 11]: 0
Plant response rating, Foxtail, Giant [4, 12]: 0
Plant response rating, Foxtail, Giant ([4]; 125 g ai/ha, scale 0 to 100): 0
Plant response rating, Foxtail, Giant ([4]; 250 g ai/ha, scale 0 to 100): 0

CCOC(=O)Cc1nc(C2CC2)nc(N=CN(C)C)c1Br [Compound 33]
Plant response rating, Surinam Grass [1, 12]: 0
Plant response rating, Surinam Grass ([1]; 125 g ai/ha, scale 0 to 100): 0
Plant response rating, Surinam Grass ([1]; 250 g ai/ha, scale 0 to 100): 0
Plant response rating, Surinam Grass ([1]; 500 g ai/ha, scale 0 to 100): 10
Plant response rating, Nutsedge, Yellow [2, 12]: 0
Plant response rating, Nutsedge, Yellow ([2]; 125 g ai/ha, scale 0 to 100): 0
Plant response rating, Nutsedge, Yellow ([2]; 250 g ai/ha, scale 0 to 100): 0
Plant response rating, Nutsedge, Yellow ([2]; 500 g ai/ha, scale 0 to 100): 0
Plant response rating, Crabgrass [3, 12]: 0
Plant response rating, Crabgrass ([3]; 125 g ai/ha, scale 0 to 100): 20
Plant response rating, Crabgrass ([3]; 250 g ai/ha, scale 0 to 100): 100
Plant response rating, Crabgrass ([3]; 500 g ai/ha, scale 0 to 100): 100
Plant response rating, Foxtail, Giant [4, 12]: 0
Plant response rating, Foxtail, Giant ([4]; 125 g ai/ha, scale 0 to 100): 10
Plant response rating, Foxtail, Giant ([4]; 250 g ai/ha, scale 0 to 100): 50
Plant response rating, Foxtail, Giant ([4]; 500 g ai/ha, scale 0 to 100): 50

CCOC(=O)c1nc(C2CC2)nc(N=CN(C)C)c1Br [Compound 40]
Plant response rating, Surinam Grass ([1]; 125 g ai/ha, scale 0 to 100): 0
Plant response rating, Surinam Grass ([1]; 250 g ai/ha, scale 0 to 100): 10
Plant response rating, Surinam Grass ([1]; 500 g ai/ha, scale 0 to 100): 90
Plant response rating, Nutsedge, Yellow [2, 12]: 0
Plant response rating, Nutsedge, Yellow ([2]; 125 g ai/ha, scale 0 to 100): 0
Plant response rating, Nutsedge, Yellow ([2]; 250 g ai/ha, scale 0 to 100): 0
Plant response rating, Nutsedge, Yellow ([2]; 500 g ai/ha, scale 0 to 100): 0
Plant response rating, Crabgrass [3, 12]: 5
Plant response rating, Crabgrass ([3]; 500 g ai/ha, scale 0 to 100): 100
Plant response rating, Foxtail, Giant [4, 12]: 0
Plant response rating, Foxtail, Giant ([4]; 125 g ai/ha, scale 0 to 100): 0
Plant response rating, Foxtail, Giant ([4]; 250 g ai/ha, scale 0 to 100): 30
Plant response rating, Foxtail, Giant ([4]; 500 g ai/ha, scale 0 to 100): 35

CCCOC(=O)c1nc(C2CC2)nc(N)c1Cl [Compound 75]
Plant response rating, Morningglory [5, 13]: 90
Plant response rating, Morningglory [5, 14]: 90
Plant response rating, Morningglory [5, 15]: 95
Plant response rating, Morningglory [5, 16]: 100
Plant response rating, Crabgrass [6, 13]: 80
Plant response rating, Crabgrass [6, 14]: 90
Plant response rating, Crabgrass [6, 15]: 85
Plant response rating, Crabgrass [6, 16]: 90
Plant response rating, Foxtail, Giant [7, 13]: 90
Plant response rating, Foxtail, Giant [7, 14]: 90
Plant response rating, Foxtail, Giant [7, 15]: 75
Plant response rating, Foxtail, Giant [7, 16]: 90
Plant response rating, Pigweed [8, 13]: 90
Plant response rating, Pigweed [8, 14]: 100
Plant response rating, Pigweed [8, 15]: 90
Plant response rating, Pigweed [8, 16]: 95
Plant response rating, Velvetleaf [9, 13]: 85
Plant response rating, Velvetleaf [9, 14]: 100
Plant response rating, Velvetleaf [9, 15]: 80
Plant response rating, Velvetleaf [9, 16]: 95
Plant response rating, Barnyardgrass [10, 13]: 85
Plant response rating, Barnyardgrass [10, 14]: 90
Plant response rating, Barnyardgrass [10, 15]: 70
Plant response rating, Barnyardgrass [10, 16]: 95
Plant response rating, Surinam Grass [1, 17]: 0
Plant response rating, Surinam Grass [1, 11]: 0
Plant response rating, Surinam Grass [1, 12]: 55
Plant response rating, Nutsedge, Yellow [2, 17]: 0
Plant response rating, Nutsedge, Yellow [2, 11]: 0
Plant response rating, Nutsedge, Yellow [2, 12]: 0
Plant response rating, Crabgrass [3, 17]: 0
Plant response rating, Crabgrass [3, 11]: 10
Plant response rating, Crabgrass [3, 12]: 20
Plant response rating, Crabgrass ([3]; 125 g ai/ha, scale 0 to 100): 60
Plant response rating, Foxtail, Giant [4, 17]: 0
Plant response rating, Foxtail, Giant [4, 11]: 0
Plant response rating, Foxtail, Giant [4, 12]: 0
Plant response rating, Foxtail, Giant ([4]; 125 g ai/ha, scale 0 to 100): 10
